Reference: patent US9751878B2, “Tetrahydronaphthyridine somatostatin receptor 5 antagonists” (Takeda Pharmaceutical Company Limited, priority 2013, dated 2017)

Molecular target: T1, human SSTR5 (Homo sapiens, UniProt P35346)
T1 construct: expressed in transfected cells
Experiment: Evaluation of human SSTR5 antagonist activity using intracellular cAMP concentration as index
Type: cell-based
Details: 1 μM test compound; CHO (dhfr-) cells stably expressing human SSTR5; 0.1 nM somatostatin 28, 0.3 μM forskolin; cAMP HTRF; read-out: Inhibition rate against SSTR5 at 1 μM
Method: Evaluation of Human SSTR5 Antagonist Activity Using Intracellular cAMP Concentration as Index
The intracellular cAMP concentration was measured using HTRF cAMP dynamic 2 kit (Cisbio Bioassays). Each test compound diluted with an assay buffer (HBSS (Invitrogen Corp.) containing 5 mM HEPES (pH 7.5) (Invitrogen Corp.), 0.1% fatty-acid free BSA (Sigma-Aldrich Corp.), and 500 μM IBMX (Wako Pure Chemical Industries, Ltd.)) was added at a concentration of 2 μL/well to a 384-well white plate (Greiner Bio-One Co., Ltd.) to give the final concentration of 1 μM. A frozen stock of CHO (dhfr-) cells stably expressing the human SSTR5 gene (Accession No. NM_001053) was thawed in a thermostat bath of 37° C. and suspended in a subculture medium (MEM alpha (Wako Pure Chemical Industries, Ltd.), 10% dialyzed serum (Gemini Bio-Products), and 50 μg/mL gentamicin (Invitrogen Corp.). After centrifugation of the cell suspension, the cells were resuspended in an assay buffer and added at a concentration of 2 μL/well (about 4,000 cells/well) to the plate. The compound and the cells were incubated for 15 minutes, and then, an assay buffer containing 0.1 nM (final concentration) somatostatin 28 (Toray Research Center) and 0.3 μM (final concentration) forskolin (Wako Pure Chemical Industries, Ltd.) was added thereto at a concentration of 2 μL/well, followed by incubation at room temperature for 30 minutes. cAMP-d2 and anti-cAMP-cryptate were each added thereto at a concentration of 3 μL/well. The plate was left standing at room temperature for 60 minutes. Then, the fluorescence resonance energy transfer (FRET) intensity was measured using Multi-label reader Envision (PerkinElmer). The FRET intensity of the wells supplemented with the test compound group was converted to a cAMP concentration using a calibration curve prepared from the FRET intensity of a well group containing an assay buffer supplemented with an arbitrary concentration of cAMP. The inhibitory activity of each compound was calculated according to the following expression: Inhibitory activity (%)=(C−B)/(A−B)×100 A: cAMP concentration calculated from the wells supplemented with 0.3 μM forskolin B: cAMP concentration calculated from the wells supplemented with 0.3 μM forskolin and 0.1 nM somatostatin 28 C: cAMP concentration calculated from the wells supplemented with 0.3 μM forskolin, 0.1 nM somatostatin 28, and 1 μM test compound

T1 sequence (P35346 whole entry): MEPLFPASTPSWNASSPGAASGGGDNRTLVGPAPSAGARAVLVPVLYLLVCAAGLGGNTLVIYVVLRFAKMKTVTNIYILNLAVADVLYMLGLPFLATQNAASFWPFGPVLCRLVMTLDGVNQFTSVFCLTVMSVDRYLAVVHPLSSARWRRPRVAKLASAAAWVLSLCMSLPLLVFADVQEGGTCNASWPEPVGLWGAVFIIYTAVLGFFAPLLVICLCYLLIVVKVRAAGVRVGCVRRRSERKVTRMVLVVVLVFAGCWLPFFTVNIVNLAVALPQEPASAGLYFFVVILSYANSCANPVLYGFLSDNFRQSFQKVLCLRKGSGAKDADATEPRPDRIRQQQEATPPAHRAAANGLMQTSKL

Row | Compound | inhibition at 1 µM
1 | CCOc1cc(CN2CCC(N3CCc4nc(C(=O)O)ccc4C3=O)CC2)cc(OCC)c1-c1ccc(F)cc1 [Example 53, 6-(1-((2,6-Diethoxy-4′-fluorobiphenyl-4-yl)methyl)piperidin-4-yl)-5-oxo-5,6,7,8-tetrahydro-1,6-naphthyridine-2-carboxylic acid] | 108%
2 | CCCc1nc2c(cc1C(=O)O)C(=O)N(C1CCN(Cc3cc(C4CC4)c(-c4ccc(F)cc4F)cc3OC(C)C)CC1)CC2 [Example 40, 6-(1-((2-Cyclopropyl-2′,4′-difluoro-5-isopropoxybiphenyl-4-yl)methyl)piperidin-4-yl)-5-oxo-2-propyl-5,6,7,8-tetrahydro-1,6-naphthyridine-3-carboxylic acid] | 148%
3 | CCCc1nc2c(cc1C(=O)O)C(=O)N(C1CCN(Cc3cc(C4CC4)c(-c4ccc(F)cc4)cc3OC(C)C)CC1)CC2 [Example 37, 6-(1-((2-Cyclopropyl-4′-fluoro-5-isopropoxybiphenyl-4-yl)methyl)piperidin-4-yl)-5-oxo-2-propyl-5,6,7,8-tetrahydro-1,6-naphthyridine-3-carboxylic acid] | 97%
4 | CCCc1nc2c(cc1C(=O)O)C(=O)N(C1CCN(Cc3cc(C4CC4)c(C4CC4)cc3OCC)CC1)CC2 [Example 51, 6-(1-(4,5-Dicyclopropyl-2-ethoxybenzyl)piperidin-4-yl)-5-oxo-2-propyl-5,6,7,8-tetrahydro-1,6-naphthyridine-3-carboxylic acid] | 103%
5 | CCCc1nc2c(cc1C(=O)O)C(=O)N(C1CCN(Cc3cc(C4CC4)c(C4CCC4)cc3OC(C)C)CC1)CC2 [Example 41, 6-(1-(4-Cyclobutyl-5-cyclopropyl-2-isopropoxybenzyl)piperidin-4-yl)-5-oxo-2-propyl-5,6,7,8-tetrahydro-1,6-naphthyridine-3-carboxylic acid] | 99%
6 | CC(C)Oc1cc(-c2ccc(F)cc2)c(C2CC2)cc1CN1CCC(N2CCc3nc(C(C)C)c(C(=O)O)cc3C2=O)CC1 [Example 50, 6-(1-((2-Cyclopropyl-4′-fluoro-5-isopropoxybiphenyl-4-yl)methyl)piperidin-4-yl)-2-isopropyl-5-oxo-5,6,7,8-tetrahydro-1,6-naphthyridine-3-carboxylic acid] | 99%
7 | CCOc1cc(CN2CCC(N3CCc4nc(CC)c(C(=O)O)cc4C3=O)CC2)cc(C2CC2)c1-c1ccc(F)cc1 [Example 45, 6-(1-((2-Cyclopropyl-6-ethoxy-4′-fluorobiphenyl-4-yl)methyl)piperidin-4-yl)-2-ethyl-5-oxo-5,6,7,8-tetrahydro-1,6-naphthyridine-3-carboxylic acid] | 99%
8 | CCOc1cc(-c2ccc(F)cc2)c(C2CC2)cc1CN1CCC(N2CCc3ccc(C(=O)O)nc3C2=O)CC1 [Example 31, 7-(1-((2-Cyclopropyl-5-ethoxy-4′-fluorobiphenyl-4-yl)methyl)piperidin-4-yl)-8-oxo-5,6,7,8-tetrahydro-1,7-naphthyridine-2-carboxylic acid] | 118%
9 | CCOc1cc(-c2ccc(F)cc2)c(C2CC2)cc1CN1CCC(N2CCc3nc(C4CC4)c(C(=O)O)cc3C2=O)CC1 [Example 3, 2-Cyclopropyl-6-(1-((2-cyclopropyl-5-ethoxy-4′-fluorobiphenyl-4-yl)methyl)piperidin-4-yl)-5-oxo-5,6,7,8-tetrahydro-1,6-naphthyridine-3-carboxylic acid] | 115%
10 | CCOc1cc(-c2ccc(F)cc2F)c(C2CC2)cc1CN1CCC(N2CCc3nc(COC)c(C(=O)O)cc3C2=O)CC1 [Example 48, 6-(1-((2-Cyclopropyl-5-ethoxy-2′,4′-difluorobiphenyl-4-yl)methyl)piperidin-4-yl)-2-(methoxymethyl)-5-oxo-5,6,7,8-tetrahydro-1,6-naphthyridine-3-carboxylic acid] | 99%
11 | CCOc1cc(CN2CCC(N3CCc4nc(C)c(C(=O)O)cc4C3=O)CC2)cc(C2CC2)c1-c1ccc(F)cc1 [Example 1, 6-(1-((2-Cyclopropyl-6-ethoxy-4′-fluorobiphenyl-4-yl)methyl)piperidin-4-yl)-2-methyl-5-oxo-5,6,7,8-tetrahydro-1,6-naphthyridine-3-carboxylic acid] | 91%
12 | CCCc1nc2c(cc1C(=O)O)C(=O)N(C1CCN(Cc3cc(OCC)c(-c4ccc(F)cc4)c(C4CC4)c3)CC1)CC2 [Example 36, 6-(1-((2-Cyclopropyl-6-ethoxy-4′-fluorobiphenyl-4-yl)methyl)piperidin-4-yl)-5-oxo-2-propyl-5,6,7,8-tetrahydro-1,6-naphthyridine-3-carboxylic acid] | 94%
13 | CCCc1nc2c(cc1C(=O)O)C(=O)N(C1CCN(Cc3cc(C4CC4)c(-c4ccc(F)c(F)c4)cc3OCC)CC1)CC2 [Example 43, 6-(1-((2-Cyclopropyl-5-ethoxy-3′,4′-difluorobiphenyl-4-yl)methyl)piperidin-4-yl)-5-oxo-2-propyl-5,6,7,8-tetrahydro-1,6-naphthyridine-3-carboxylic acid] | 95%
14 | CCCc1nc2c(cc1C(=O)O)C(=O)N(C1CCN(Cc3cc(C4CC4)c(-c4ccc(F)cc4)c(F)c3OC)CC1)CC2 [Example 81, 6-(1-((6-Cyclopropyl-2,4′-difluoro-3-methoxybiphenyl-4-yl)methyl)piperidin-4-yl)-5-oxo-2-propyl-5,6,7,8-tetrahydro-1,6-naphthyridine-3-carboxylic acid] | 82%
15 | CCCc1nc2c(cc1C(=O)O)C(=O)N(C1CCN(Cc3cc(OC(C)C)c(-c4ccc(F)cc4)c(C4CC4)c3)CC1)CC2 [Example 63, 6-(1-((2-Cyclopropyl-4′-fluoro-6-isopropoxybiphenyl-4-yl)methyl)piperidin-4-yl)-5-oxo-2-propyl-5,6,7,8-tetrahydro-1,6-naphthyridine-3-carboxylic acid] | 97%
16 | CCc1nc2c(cc1C(=O)O)C(=O)N(C1CCN(Cc3cc(C4CC4)c(-c4ccc(F)cc4F)cc3OC(C)C)CC1)CC2 [Example 46, 6-(1-((2-Cyclopropyl-2′,4′-difluoro-5-isopropoxybiphenyl-4-yl)methyl)piperidin-4-yl)-2-ethyl-5-oxo-5,6,7,8-tetrahydro-1,6-naphthyridine-3-carboxylic acid] | 86%
17 | CCOc1cc(-c2ccc(F)cc2)c(C2CC2)cc1CN1CCC(N2CCc3nc(C)c(C(=O)O)cc3C2=O)CC1 [Example 5, 6-(1-((2-Cyclopropyl-5-ethoxy-4′-fluorobiphenyl-4-yl)methyl)piperidin-4-yl)-2-methyl-5-oxo-5,6,7,8-tetrahydro-1,6-naphthyridine-3-carboxylic acid] | 132%
18 | CCCc1nc2c(cc1C(=O)O)C(=O)N(C1CCN(Cc3cc(OCC)c(-c4ccc(F)cc4)c(OCC)c3)CC1)CC2 [Example 38, 6-(1-((2,6-Diethoxy-4′-fluorobiphenyl-4-yl)methyl)piperidin-4-yl)-5-oxo-2-propyl-5,6,7,8-tetrahydro-1,6-naphthyridine-3-carboxylic acid] | 97%
19 | CCOc1nc(-c2ccc(F)cc2)c(C2CC2)cc1CN1CCC(N2CCc3nc(CC)c(C(=O)O)cc3C2=O)CC1 [Example 33, 6-(1-((5-Cyclopropyl-2-ethoxy-6-(4-fluorophenyl)pyridin-3-yl)methyl)piperidin-4-yl)-2-ethyl-5-oxo-5,6,7,8-tetrahydro-1,6-naphthyridine-3-carboxylic acid] | 123%
20 | CCCc1nc2c(cc1C(=O)O)C(=O)N(C1CCN(Cc3cc(C4CC4)c(-c4ccc(F)cc4)cc3OC)CC1)CC2 [Example 42, 6-(1-((2-Cyclopropyl-4′-fluoro-5-methoxybiphenyl-4-yl)methyl)piperidin-4-yl)-5-oxo-2-propyl-5,6,7,8-tetrahydro-1,6-naphthyridine-3-carboxylic acid] | 136%
21 | CCOc1cc(-c2ccc(F)cc2)c(C2CC2)cc1CN1CCC(N2CCc3nc(CC)c(C(=O)O)cc3C2=O)CC1 [Example 2, 6-(1-((2-Cyclopropyl-5-ethoxy-4′-fluorobiphenyl-4-yl)methyl)piperidin-4-yl)-2-ethyl-5-oxo-5,6,7,8-tetrahydro-1,6-naphthyridine-3-carboxylic acid] | 86%
22 | CCCc1nc2c(cc1C(=O)O)C(=O)N(C1CCN(Cc3cc(C4CC4)c(-c4ccc(F)c(F)c4)cc3OC(C)C)CC1)CC2 [Example 39, 6-(1-((2-Cyclopropyl-3′,4′-difluoro-5-isopropoxybiphenyl-4-yl)methyl)piperidin-4-yl)-5-oxo-2-propyl-5,6,7,8-tetrahydro-1,6-naphthyridine-3-carboxylic acid] | 112%
